Measured values reported in patent US6355799B1, “Substituted benzene compounds, process for their preparation, and herbicidal and defoliant compositions containing them” (ISK Americas Incorporated, priority 1997, dated 2002).

Assays:
Type in all cases: in vivo
[1] = test system: johnsongrass (Sorghum halepense, SORHA); assay: Pre-emerge test, greenhouse herbicide activity screening; settings: pre-emerge; for Pre-emerge Herbicidal Activity SORHA (phytotoxicity rating, scale 0-100): rated 14 days after application, 0 = no damage, 100 = complete death
Method in brief: (§1)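 Sandy loam pots; pre-emerge: sown 1 d pre-spray, surface-watered after, then bottom-watered. Post-emerge: sown 8–21 d before, 2–3 leaf stage, + 0.25% v/v NIS, bottom-watered. Acetone, 187 l/ha track spray, 15–1000 g ai/ha. 0–100 injury score, day 14.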

[2] = test system: sicklepod (Cassia obtusifolia, CASOB); assay: as above; settings: pre-emerge; for Pre-emerge Herbicidal Activity CASOB (phytotoxicity rating, scale 0-100): rated 14 days after application, 0 = no damage, 100 = complete death
Method in brief: as §1

[3] = test system: barnyardgrass (Echinochloa crus-galli, ECHCG); assay: as above; settings: pre-emerge; for Pre-emerge Herbicidal Activity ECHCG (phytotoxicity rating, scale 0-100): rated 14 days after application, 0 = no damage, 100 = complete death
Method in brief: as §1

[4] = test system: lambsquarters (Chenopodium album, CHEAL); assay: as above; settings: pre-emerge; for Pre-emerge Herbicidal Activity CHEAL (phytotoxicity rating, scale 0-100): rated 14 days after application, 0 = no damage, 100 = complete death
Method in brief: as §1

[5] = test system: ivyleaf morningglory (Ipomoea hederacea, IPOHE); assay: as above; settings: pre-emerge; for Pre-emerge Herbicidal Activity IPOHE (phytotoxicity rating, scale 0-100): rated 14 days after application, 0 = no damage, 100 = complete death
Method in brief: as §1

[6] = test system: large crabgrass (Digitaria sanguinalis, DIGSA); assay: as above; settings: pre-emerge; for Pre-emerge Herbicidal Activity DIGSA (phytotoxicity rating, scale 0-100): rated 14 days after application, 0 = no damage, 100 = complete death
Method in brief: as §1

[7] = test system: velvetleaf (Abutilon theophrasti, ABUTH); assay: as above; settings: pre-emerge; for Pre-emerge Herbicidal Activity ABUTH (phytotoxicity rating, scale 0-100): rated 14 days after application, 0 = no damage, 100 = complete death
Method in brief: as §1

[8] = test system: green foxtail (Setaria viridis, SETVI); assay: as above; settings: pre-emerge; for Pre-emerge Herbicidal Activity SETVI (phytotoxicity rating, scale 0-100): rated 14 days after application, 0 = no damage, 100 = complete death
Method in brief: as §1

[9] = test system: johnsongrass (Sorghum halepense, SORHA); assay: Post-emerge test, greenhouse herbicide activity screening; settings: Sorghum halepense, post-emergence, 336 h, read-out: Post-emerge Herbicidal Activity SORHA; for pest or weed control at 63 g/ha: 63 g ai/ha; for pest or weed control at 250 g/ha: 250 g ai/ha
Method in brief: as §1

[10] = test system: sicklepod (Cassia obtusifolia, CASOB); assay: as above; settings: Senna obtusifolia, post-emergence, 336 h, phytotoxicity rating 0-100 (0 no damage, 100 complete death), 14 days after application, read-out: Post-emerge Herbicidal Activity CASOB
Method in brief: as §1

[11] = test system: lambsquarters (Chenopodium album, CHEAL); assay: as above; settings: Chenopodium album, post-emergence, 336 h, read-out: Post-emerge Herbicidal Activity CHEAL; for pest or weed control at 63 g/ha: 63 g ai/ha; for pest or weed control at 250 g/ha: 250 g ai/ha
Method in brief: as §1

[12] = test system: large crabgrass (Digitaria sanguinalis, DIGSA); assay: as above; settings: Digitaria sanguinalis, post-emergence, 336 h, read-out: Post-emerge Herbicidal Activity DIGSA; for pest or weed control at 63 g/ha: 63 g ai/ha; for pest or weed control at 250 g/ha: 250 g ai/ha
Method in brief: as §1

[13] = test system: green foxtail (Setaria viridis, SETVI); assay: as above; settings: Setaria viridis, post-emergence, 336 h, read-out: Post-emerge Herbicidal Activity SETVI; for pest or weed control at 63 g/ha: 63 g ai/ha; for pest or weed control at 250 g/ha: 250 g ai/ha
Method in brief: as §1

[14] = test system: redroot pigweed (Amaranthus retroflexus, AMARE); assay: Pre-emerge test, greenhouse herbicide activity screening; settings: pre-emerge; for Pre-emerge Herbicidal Activity AMARE (phytotoxicity rating, scale 0-100): rated 14 days after application, 0 = no damage, 100 = complete death
Method in brief: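 Compounds in acetone were track-sprayed at 15-1000 g ai/ha (187 l/ha) on sandy loam pots: pre-emerge one day after seeding, post-emerge at 2-3 leaf stage with 0.25% v/v non-ionic surfactant. Phytotoxicity was rated 14 days later on a 0 (no damage) to 100 (complete death) scale.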

[15] = phytotoxicity rating 0-100 (0 no damage, 100 complete death), 14 days after application
[16] = post-emerge, phytotoxicity rating 0-100 at 14 days after application

Cn1c(C(F)(F)F)cc(=O)n(-c2c(F)cc(Cl)c(O)c2N)c1=O [Compound 1-16, 3-(2-amino-4-chloro-6-fluoro-3-hydroxyphenyl)-1-methyl-6-trifluoromethyl-2,4(1H, 3H)-pyrimidinedione]
0: Pre-emerge Herbicidal Activity SORHA (phytotoxicity rating, scale 0-100) ([1]; 63 g ai/ha) | Pre-emerge Herbicidal Activity SORHA (phytotoxicity rating, scale 0-100) ([1]; 250 g ai/ha) | Pre-emerge Herbicidal Activity CASOB (phytotoxicity rating, scale 0-100) ([2]; 63 g ai/ha) | Pre-emerge Herbicidal Activity CASOB (phytotoxicity rating, scale 0-100) ([2]; 250 g ai/ha) | Pre-emerge Herbicidal Activity ECHCG (phytotoxicity rating, scale 0-100) ([3]; 63 g ai/ha) | Pre-emerge Herbicidal Activity ECHCG (phytotoxicity rating, scale 0-100) ([3]; 250 g ai/ha) | Pre-emerge Herbicidal Activity CHEAL (phytotoxicity rating, scale 0-100) ([4]; 63 g ai/ha) | Pre-emerge Herbicidal Activity IPOHE (phytotoxicity rating, scale 0-100) ([5]; 63 g ai/ha) | Pre-emerge Herbicidal Activity IPOHE (phytotoxicity rating, scale 0-100) ([5]; 250 g ai/ha) | Pre-emerge Herbicidal Activity DIGSA (phytotoxicity rating, scale 0-100) ([6]; 63 g ai/ha) | Pre-emerge Herbicidal Activity DIGSA (phytotoxicity rating, scale 0-100) ([6]; 250 g ai/ha) | Pre-emerge Herbicidal Activity ABUTH (phytotoxicity rating, scale 0-100) ([7]; 63 g ai/ha) | Pre-emerge Herbicidal Activity ABUTH (phytotoxicity rating, scale 0-100) ([7]; 250 g ai/ha) | Pre-emerge Herbicidal Activity SETVI (phytotoxicity rating, scale 0-100) ([8]; 63 g ai/ha) | Pre-emerge Herbicidal Activity SETVI (phytotoxicity rating, scale 0-100) ([8]; 250 g ai/ha) | Pre-emerge Herbicidal Activity AMARE (phytotoxicity rating, scale 0-100) ([14]; 63 g ai/ha) | Pre-emerge Herbicidal Activity AMARE (phytotoxicity rating, scale 0-100) ([14]; 250 g ai/ha)
30%: pest or weed control at 63 g/ha [11, 15]
60%: pest or weed control at 250 g/ha [11, 15]
70: Pre-emerge Herbicidal Activity CHEAL (phytotoxicity rating, scale 0-100) ([4]; 250 g ai/ha)
0%: pest or weed control at 63 g/ha [9, 15] | pest or weed control at 250 g/ha [9, 15] | pest or weed control at 63 g/ha ([10]; 63 g ai/ha) | pest or weed control at 250 g/ha ([10]; 250 g ai/ha) | pest or weed control at 63 g/ha [12, 15] | pest or weed control at 250 g/ha [12, 15] | pest or weed control at 63 g/ha [13, 15] | pest or weed control at 250 g/ha [13, 15]

COc1c(Cl)cc(F)c(-c2nn(C)c(C(F)(F)F)c2Cl)c1N [Compound 7-2, 4-chloro-3-(2-amino-4-chloro-6-fluoro3-metoxyphenyl)-1-methyl-5-trifluoromethyl-1H-pyrazole]
20%: pest or weed control at 63 g/ha [9, 16] | pest or weed control at 63 g/ha [12, 16] | pest or weed control at 63 g/ha [13, 16]
50%: pest or weed control at 250 g/ha [13, 16]
80%: pest or weed control at 250 g/ha ([5]; Ipomoea, pre-emergence, 336 h, rate 250 g ai/ha, phytotoxicity rating 0-100 at 14 days after application, read-out: Pre-emerge Herbicidal Activity IPOHE)
100%: pest or weed control at 250 g/ha ([1]; Sorghum halepense, pre-emergence, 336 h, rate 250 g ai/ha, phytotoxicity rating 0-100 at 14 days after application, read-out: Pre-emerge Herbicidal Activity SORHA) | pest or weed control at 250 g/ha ([3]; Echinochloa crus-galli, pre-emergence, 336 h, rate 250 g ai/ha, phytotoxicity rating 0-100 at 14 days after application, read-out: Pre-emerge Herbicidal Activity ECHCG) | pest or weed control at 63 g/ha ([4]; Chenopodium album, pre-emergence, 336 h, rate 63 g ai/ha, phytotoxicity rating 0-100 at 14 days after application, read-out: Pre-emerge Herbicidal Activity CHEAL) | pest or weed control at 250 g/ha ([4]; Chenopodium album, pre-emergence, 336 h, rate 250 g ai/ha, phytotoxicity rating 0-100 at 14 days after application, read-out: Pre-emerge Herbicidal Activity CHEAL) | pest or weed control at 63 g/ha ([6]; Digitaria sanguinalis, pre-emergence, 336 h, rate 63 g ai/ha, phytotoxicity rating 0-100 at 14 days after application, read-out: Pre-emerge Herbicidal Activity DIGSA) | pest or weed control at 250 g/ha ([6]; Digitaria sanguinalis, pre-emergence, 336 h, rate 250 g ai/ha, phytotoxicity rating 0-100 at 14 days after application, read-out: Pre-emerge Herbicidal Activity DIGSA) | pest or weed control at 250 g/ha ([7]; Abutilon theophrasti, pre-emergence, 336 h, rate 250 g ai/ha, phytotoxicity rating 0-100 at 14 days after application, read-out: Pre-emerge Herbicidal Activity ABUTH) | pest or weed control at 250 g/ha ([8]; Setaria viridis, pre-emergence, 336 h, rate 250 g ai/ha, phytotoxicity rating 0-100 at 14 days after application, read-out: Pre-emerge Herbicidal Activity SETVI) | pest or weed control at 250 g/ha [11, 16] | pest or weed control at 63 g/ha ([14]; Amaranthus retroflexus, pre-emergence, 336 h, rate 63 g ai/ha, phytotoxicity rating 0-100 at 14 days after application, read-out: Pre-emerge Herbicidal Activity AMARE) | pest or weed control at 250 g/ha ([14]; Amaranthus retroflexus, pre-emergence, 336 h, rate 250 g ai/ha, phytotoxicity rating 0-100 at 14 days after application, read-out: Pre-emerge Herbicidal Activity AMARE)
95%: pest or weed control at 63 g/ha ([1]; Sorghum halepense, pre-emergence, 336 h, rate 63 g ai/ha, phytotoxicity rating 0-100 at 14 days after application, read-out: Pre-emerge Herbicidal Activity SORHA) | pest or weed control at 63 g/ha ([7]; Abutilon theophrasti, pre-emergence, 336 h, rate 63 g ai/ha, phytotoxicity rating 0-100 at 14 days after application, read-out: Pre-emerge Herbicidal Activity ABUTH) | pest or weed control at 63 g/ha ([8]; Setaria viridis, pre-emergence, 336 h, rate 63 g ai/ha, phytotoxicity rating 0-100 at 14 days after application, read-out: Pre-emerge Herbicidal Activity SETVI) | pest or weed control at 63 g/ha [11, 16]
60%: pest or weed control at 63 g/ha ([5]; Ipomoea, pre-emergence, 336 h, rate 63 g ai/ha, phytotoxicity rating 0-100 at 14 days after application, read-out: Pre-emerge Herbicidal Activity IPOHE)
30%: pest or weed control at 63 g/ha ([2]; Senna obtusifolia, pre-emergence, 336 h, rate 63 g ai/ha, phytotoxicity rating 0-100 at 14 days after application, read-out: Pre-emerge Herbicidal Activity CASOB) | pest or weed control at 250 g/ha ([2]; Senna obtusifolia, pre-emergence, 336 h, rate 250 g ai/ha, phytotoxicity rating 0-100 at 14 days after application, read-out: Pre-emerge Herbicidal Activity CASOB)
40%: pest or weed control at 250 g/ha [9, 16]
70%: pest or weed control at 63 g/ha ([3]; Echinochloa crus-galli, pre-emergence, 336 h, rate 63 g ai/ha, phytotoxicity rating 0-100 at 14 days after application, read-out: Pre-emerge Herbicidal Activity ECHCG) | pest or weed control at 250 g/ha [12, 16]
